Here are results for two compounds from US10618874B2, “Compounds, cosmetic composition and pharmaceutical composition comprising the same” (INCOSPHARM CORPORATION, priority 2018, dated 2020).

The structures appear in SMILES notation.

In one data set the test system is mushroom tyrosinase. In words: tyrosinase activity inhibition assay. The class given is biochemical. The following applies: 10, 100, 1000 and 10000 ppm; 37° C., 1 hour; FIG. 2. On the procedure: As a specific experimental method, mushroom tyrosinase was diluted with a 0.1 M sodium phosphate buffer at 2 unit/ul and dissolved in water at 0.03 wt % of tyrosine. Each experiment group listed in the following Table 1 was also diluted in the 0.1 M sodium phosphate buffer at 10, 100, 1000, and 10000 ppm and mixed as listed in Table 1. Reaction was performed at 37° C. for 1 hour and absorbance was measured, respectively (wavelength: 490 nm, Epoch, BioTek). Based on the results, a tyrosinase inhibition ratio relative to a control group was calculated. [table]

Data set [1] deals with melanin cells (human primary melanocyte, HEMn-DP). In words: MTT assay in melanocytes. Format: cell-based. As to conditions: 5, 10 and 50 μM, 4 days, FIG. 3. On the procedure: (§1) In order to confirm a treatment concentration of Compound and Compound 2 obtained in the above Examples having no cytotoxicity thereby, an MTT assay was performed.
(§2) As a specific experimental method, in order to confirm cytotoxicity depending on the treatment concentration of Compound 1 and Compound 2, apoptosis analysis was performed in melanin cells (human primary melanocyte, HEMn-DP, cat # C2025C, Gibco) and keratinocytes (human primary keratinocyte, HEKn, cat # C0015C, Gibco). Cells were deposited to the number of 1×10^4 cells/well in a 96 well plate and cultured in an incubator for 24 hours under the condition of 37° C. and 5% CO2.
(§3) Each of Compound 1 and Compound 2 obtained in the above Examples was dissolved in distilled water (DW) at a concentration of 100 mM to form a concentrated solution, which was diluted with a medium, and treatment was performed at concentrations of 5, 10, and 50 μM. After 4 days, the medium of the plate was removed and the plate was treated with 100 μl of an MTT reagent (Sigma, 0.5 mg/ml). After 4 hours, the reagent was removed, dimethyl sulfoxide (DMSO) was added thereto, and absorbance was measured (wavelength: 570 nm, Epoch, BioTek). Here, cell viability was calculated as a percentage to absorbance of a control group (blank) which was not treated with the compound.
(Tetrazolium assays rely on reduction of a dye to a coloured formazan, in cell work by metabolically active cells.)

Data set [2] has as its system keratinocytes (human primary keratinocyte, HEKn). Nature of the data set: MTT assay in keratinocytes. Format: cell-based. The following applies: 5, 10 and 50 μM, 4 days, FIG. 4. On the procedure: as §1, §2, §3
For data set [3], the system named is human-derived melanin cells (HEMn-DP); MITF, Tyrosinase mRNA. In words: melanosome maturation-related genes (qPCR) and melanin content in melanin cells. Format: cell-based. The following applies: 1 ml of 20 μM added to 1 ml medium, 48 hours, FIGS. 5 to 7. On the procedure: In order to analyze how Compound 1 and Compound 2 obtained in the above Examples affect melanosome maturation, an amount of melanosome maturation-related mRNA after treated with Compound 1 and Compound 2 was analyzed with qPCR and a melanin content was measured with absorbance.
As a specific experimental method, human-derived melanin cells (HEMn-DP, cat # C2025C, Gibco) were constantly deposited to the number of 1×10^5 in a 6 well plate for culturing and cultured in an incubator for 24 hours under the condition of 37° C. and 5% CO2 in M254 (cat # M-254-500, Gibco). Each of Compound 1 and Compound 2 was dissolved in DW at a concentration of 100 mM to form a concentration solution, which was diluted in a medium at a concentration of 20 μM, 1 ml of each diluted solution was added to each well containing 1 ml of the medium first for treatment and cultured for 48 hours, and RNeasy mini kit (cat #74106, QIAGEN) was used to extract RNA from melanin cells. […] Then, the experiment was performed identically, the medium was removed after completion of culturing, melanin cells were separated from the plate using Trypsin-EDTA (cat # LS-015-09, WELGENE), transferred to a 1.5 ml tube, and spun down, a photograph of the pellet was taken, and the absorbance of a solution of the pellet dissolved in 1N NaOH was measured (wavelength: 400 nm, Epoch, BioTek).
(In general: Real-time PCR tracks product formation cycle by cycle.)

In data set [4] the test system is LC3 (light chain 3; autophagy marker) in keratinocytes (HEKn). Nature of the data set: western blot on LC3 protein in keratinocytes (autophagy activation). Format: cell-based, human. The following applies: FIG. 8. On the procedure:
(§4) For intracellular autophagy analysis by treatment with Compound 1 obtained in the above Example, a western blot was performed on a LC3 (light chain 3; autophagy marker) protein. In addition, for analysis of change in endocytosis-related genes by treatment with Compound 2 obtained in the above Example, qPCR was performed on PAR2, AAK1 (AP2 Associated Kinase 1).
As a specific experimental method, keratinocytes (HEKn, cat # C0015C, Gibco) was treated with Compound 1 and dissolved using a cell lysis buffer containing a proteolysis inhibitor. The entire dissolved solution was fractionized using a centrifuge and only the solution containing proteins was extracted. The extracted proteins were quantified by a bicinchoninic acid (BCA) method. 20 μg of proteins were separated by 10% SDS-polyacrylamide gel electrophoresis and transferred to a nitrocellulose film. The film to which the proteins were transferred was blocked by a tris-buffered saline/0.05% Tween-20 (TBS-T) solution containing 5% non-fat milk for decreasing a non-specific bonding at room temperature for 1 hour, and then a primary antibody was reacted under the condition of 4° C. overnight and a secondary antibody was reacted at room temperature for 1 hour. For visualization, an enhanced chemiluminescence system was used.

Data set [5] concerns human-derived keratinocytes (HEKn). In words: melanin pigmentation in keratinocytes after melanin treatment. The class given is cell-based. As to conditions: 48 hours treatment, then melanin 2 hours; absorbance 400 nm; FIG. 9. On the procedure: In order to analyze how Compound 1 and Compound 2 obtained in the above Examples affect melanin pigmentation, a degree of pigmentation inhibition by melanin treatment was analyzed.
As a specific experimental method, human-derived keratinocytes (HEKn, cat # C0015C, Gibco) were constantly deposited to the number of 1×10^5 in a 6 well plate for culturing and cultured in an incubator for 24 hours under the condition of […] and 5% CO2 in EpiLife (cat # MEPI500CA, Gibco). Each of Compound 1 or Compound 2 obtained in the above Examples was dissolved at a concentration of 100 mM to form a concentration solution, which was diluted in a medium at a concentration of 20 μM, 1 ml of each diluted solution was added to each well containing 1 ml of the medium first for treatment and cultured for 48 hours, and 10 mg/ml of melanin was added by 2 μl at a time and culturing was further performed for 2 hours. The medium was removed after completion of culturing, cells were separated from the plate using Trypsin-EDTA (cat # LS-015-09, WELGENE), transferred to a 1.5 ml tube and spun down, a photograph of the pellet was taken, and the absorbance of a solution of the pellet dissolved in 1N NaOH was measured (wavelength: 400 nm, Epoch, BioTek).

For data set [6], the system named is keratinocytes (HEKn) with ATG5 knocked down. Nature of the data set: melanin pigmentation inhibition and autophagy proteins in ATG5 knocked-down keratinocytes. The class given is cell-based, human. The following applies: 10 μM, FIG. 10; for expression activity of LC3-II and ATG5: western blot. The source says:
In order to analyze whether melanin deposition inhibition activity on keratinocytes by treatment with Compound 1 and Compound 2 depends on autophagy activation, ATG5 which is the protein required for autophagy activation was knocked down and treated with melanin to analyze a pigmentation inhibition activity change.
As a specific experimental method, ATG5 siRNA was mixed according to the method of transfection reagent (RNAiMAX, cat #13778-075, Thermo) and deposited in keratinocytes (HEKn, cat # C0015C, Gibco). After 8 hours, Compound 1 and Compound 2 were diluted with Epilife (cat # MEPI500CA, Gibco) without a supplement and an antibiotic to a final concentration of 10 μM for treatment, and cells which were further cultured for 64 hours were dissolved using a cell lysis buffer containing a proteolysis inhibitor. The entire dissolved solution was fractionized using a centrifuge and only the solution containing proteins was extracted. The extracted proteins were quantified by a bicinchoninic acid (BCA) method. 20 μg of proteins were separated by 10% SDS-polyacrylamide gel electrophoresis and transferred to a nitrocellulose film. The film to which the proteins were transferred was blocked by a tris-buffered saline/0.05% Tween-20 (TBS-T) solution containing 5% BSA (bovine serum albumin, Gendepot, Cat # A0100-010) for decreasing a non-specific bonding at room temperature for 1 hour, and then a primary antibody was reacted under the condition of 4° C. overnight and a secondary antibody was reacted at room temperature for 1 hour. For visualization, an enhance chemiluminescence system was used. Then, in order to analyze melanin pigmentation inhibition activity, transfection and treatment with the compounds were performed identically, and then 10 mg/ml of melanin was added by 2 μl at a time and culturing was further performed for 2 hours. The culture medium was removed after completion of culturing, cells were separated from the plate using Trypsin-EDTA (cat # LS-015-09, WELGENE), transferred to a 1.5 ml tube and spun down, a photograph of the pellet was taken, and the absorbance of a solution of the pellet dissolved in 1N NaOH was measured (wavelength: 400 nm, Epoch, BioTek).
Background: Immunoblotting shows a protein as a band on a membrane.

In the next data set the test system is keratinocytes (HEKn). In words: melanosome degradation: confocal and transmission electron microscopy of keratinocytes given melanosomes. Format: cell-based, human. The following applies: 10 μM; confocal microscope; FIG. 11. On the procedure:
In order to confirm whether melanosome and autuphagosome are co-localized by treatment with Compound 1 and Compound 2 obtained in the above Examples, analysis was performed with an electron microscope and a confocal microscope.
As a specific experimental method, Lysis Buffer (Tris 20 mM, NaCl 150 mM, EDTA 1 mM, sucrose 250 mM in DW) was added to melanin cells (HEMn-DP, cat # C2025C, Gibco) containing human-derived melanin at high concentration, freezing and thawing were repeated twice to break a cell membrane, and centrifugation was performed at 1000×g for 5 minutes, thereby obtaining a supernatant. Cushion Buffer (Tris 20 mM, NaCl 150 mM, EDTA 1 mM, sucrose 1.5M in DW) was placed in an ultracentrifuge tube, the same amount of supernatant was added thereto, and then centrifugation was performed under the conditions of 25,000 rpm, […], and 4° C., thereby obtaining melanosomes. The concentration of melanosomes was measured using synthesized melanin (cat # M8631, sigma) as a standard. Keratinocytes (HEKn, cat # C0015C, Gibco) was deposited in a 6 well by 1×10^5 cells/well at a time and cultured for one day. Treatment with 10 μM of Compound 1 and compound 2 each was performed, culturing was performed for one day, separated melanosomes (5 μg/well) was added, and culturing was further performed for 2 days. […]

Data set [7] has as its system PAR-2 gene in keratinocytes (HEKn). Nature of the data set: qPCR of endocytosis-related gene PAR2 in keratinocytes. The class given is cell-based, human. As to conditions: FIG. 8. On the procedure:
as §4
As a specific experimental method, from keratinocytes (HEKn, cat # C0015C, Gibco) treated with Compound 2, RNA was extracted using a RNeasy mini kit (cat #74106, QIAGEN), cDNA was synthesized using a cDNA synthesis kit (cat # FSQ-201, TOYOBO), and then a PAR2(F: CTCTCCTGCAGTGGCACCAT; R: GATGTGCCATCAACCTTACCAA) primer and POWER SYBR MASTER MIX (cat #4367659, Thermo) were mixed at a recommended ratio with the synthesized cDNA, and qPCR was performed with QuantStudio 3 equipment (cat # A28131, Thermo).

With `CC(=O)N1C[C@H](O)C[C@H]1C(=O)NCCCC[C@H](NC(=O)[C@H](CCCCN(CC(=O)O)CC(=O)O)N(CC(=O)O)CC(=O)O)C(=O)O` [Compound 1], the tyrosinase activity inhibition result with mushroom tyrosinase is “did not inhibit tyrosinase activity”. Further, in data set [1], the “cytotoxicity (MTT, cell viability)” value was “almost no cytotoxicity”. Also, the “cytotoxicity (MTT, cell viability)” value in data set [2] was “almost no cytotoxicity”. Besides, in [3], the “influence on melanosome maturation activity (tyrosinase and MITF mRNA, melanin content)” value is “almost no influence”. In [4], the “production of LC3-II (matured autophagosome)” value is “increased”. Further, the “melanin pigmentation on keratinocytes” value in data set [5] was “effectively inhibited”. For the same compound, in data set [6], the “melanin amount in keratinocytes” value was “not decreased”; the “expression activity of LC3-II and ATG5” value is reported as “inhibited”. Further, the “co-localization of increased autophagosomes with melanosomes” value in the data set on keratinocytes (HEKn) is “co-localized with melanosomes”.

Take `O=C(O)CN(CCCC[C@@H](C(=O)N1C[C@H](O)C[C@H]1C(=O)O)N(CC(=O)O)CC(=O)O)CC(=O)O` [Compound 2]: in the data set on mushroom tyrosinase, the tyrosinase activity inhibition entry is listed as “did not inhibit tyrosinase activity”. For the same compound, in [1], the “cytotoxicity (MTT, cell viability)” value is reported as “almost no cytotoxicity”. In addition, in [2], the “cytotoxicity (MTT, cell viability)” value is “almost no cytotoxicity”. The “influence on melanosome maturation activity (tyrosinase and MITF mRNA, melanin content)” value in [3] is “almost no influence”. In addition, the “expression of the PAR-2 gene” value in [7] is recorded as “decreased”. Moreover, the “melanin pigmentation on keratinocytes” value in data set [5] is given as “effectively inhibited”. In data set [6], the “melanin amount in keratinocytes” value is on record as “not decreased”; the “expression activity of LC3-II and ATG5” value is on record as “inhibited”. For the same compound, in the data set on keratinocytes (HEKn), the “co-localization of increased autophagosomes with melanosomes” value is “co-localized with melanosomes”.
